Patent publication US20040220084A1, “Methods for nucleic acid delivery” (priority 2003, published 2004)

Key:
[1] = test system: JJ5 Breast Cancer cells; assay: Cytotoxicity (colony-forming) assay against JJ5 breast cancer cells; type: cell-based, human; details: 14 days
Protocol: JJ5 breast cancer cells were incubated with increasing amounts EGF-^111In-labeled transferrin composition or ^111In-oxine, centrifuged to remove free ligand, assayed and then seeded into 50 mm culture dishes. The number of cells seeded was varied from 3×10^4 to 3×10^6 cells to obtain approximately 400 viable colonies/dish taking into account the plating efficiency and the expected level of cytotoxicity. Control dishes contained JJ5 breast cancer cells which were incubated with normal saline. Growth medium was added and the cells were cultured at 37° C./5% CO^2 for 14 days. The growth medium was removed and the colonies were stained with methylene blue (1% in a 1:1 mixture of ethanol and water) then washed twice. The number of colonies per dish was counted using a manual colony counter (Manostat Corp). The plating efficiency was calculated by dividing the number of colonies observed by the number of cells seeded in each dish. The surviving fraction at increasing amounts of EGF-^111In-labeled transferrin composition or ^111In-oxine was calculated by dividing the plating efficiency for dishes containing treated cells with that observed for control dishes with normal saline.

[2] = test system: JJ5 Breast Cancer cells; assay: Growth inhibition assay against JJ5 breast cancer cells; type: cell-based, human; details: 4 days culture
Protocol: JJ5 breast cancer cells (prepared from BCBM JJ5) expressing approximately 10^6 epidermal growth factor receptors/cell were incubated with EGF-^111In-labeled transferrin composition, unlabeled hEGF or ^111In-oxine, centrifuged to remove free ligand, then assayed and seeded (10^6 cells/dish) into 35 mm culture dishes. Growth medium was added and the cells were cultured at 37° C./5% CO^2 for 4 days. The cells were then recovered by trypsinization and counted in a hemocytometer. Control dishes contained cells cultured in growth medium containing ^111In-DTPA or growth medium alone.

[3] = test system: JJ5 Breast Cancer cells; assay: Binding of EGF-111In-labeled transferrin composition to JJ5 breast cancer cells (radioligand binding, kinetics, internalization); parameters: species or system human
Protocol: For the normal breast cell line HBL-100, 8000 EGFR/cell has been reported. The expression of EGFR in breast cancer cell lines has a reported range of 800 EGFR/cell for MCF-7 cells to 10^6 EGFR/cell for MDA-MB-468 cells. […] Utilizing the Auger electron emitter ^111In was used in the initial experiments to illustrate the utility of the invention using EGF-111In-labeled transferrin compositions. The EGF-^111-In-labeled transferrin (0.25-80 ng) was incubated with 1.5×10^6 cells/dish JJ5 Breast Cancer (prepared from BCBM JJ5) cells in 1 mL of 0.1% human serum albumin in 35 mm multiwell culture dishes at 37° C. for 30 minutes. The cells were transferred to a centrifuge tube and centrifuged. The cell pellet was separated from the supernatant and counted in a g-scintillation counter to determine bound (B) and free (F) radioactivity. Non-specific binding was determined by conducting the assay in 100 nM hEGF. The kinetics of binding was determined by incubating 1 ng of EGF-^111In-labeled transferrin composition with 3×10^6 JJ5 Breast Cancer cells at 37° C. and determining the proportion of radioactivity bound to the cells at various times up to 24 hours. Internalized fraction was measured by determining the proportion of radioactivity which could not be displaced from the cell surface by 100 nM hEGF. Cell-associated binding (surface-binding and intracellular accumulation) was expressed as a percentage of medium radioactivity bound per mg of cell study protein.

Molecule	cell killing ([1]; <6 pCi/cell)	growth inhibition of the JJ5 cells ([2]; 3.5 pCi/cell) [%]	reduction in cell survival for JJ5 cells ([1]; 8 pCi/cell) [%]	growth inhibition of the JJ5 cells compared to the medium control ([2]; 3.4 pCi/cell) [%]	internalization by cancer cells (in words) ([3]; JJ5 cells)	binding by the breast cancer cells (kinetics, in words) ([3]; JJ5 cells, 37° C.)	retained by the breast cancer cells ([3]; JJ5 cells, 37° C.)	affinity constant for binding to JJ5 cells ([3]; JJ5 cells, 37° C., 30 minutes) [L/mol]	111In radioactivity lost from the cells in vitro ([3]; over a 24 hour period at 37° C.) [%]
[In+3].[O-]c1cccc2cccnc12.[O-]c1cccc2cccnc12.[O-]c1cccc2cccnc12 [^111In-oxine, reference compound]	greater than 99%	91	–	–	–	–	–	–	–
EGF-^111In-labeled transferrin composition: human EGF linked to human transferrin radiolabeled with Auger electron emitter 111In at the iron-binding sites	–	–	99	83	rapidly internalized	rapidly bound	at least 24 hours	8e+08	< 8
